Experimental data taken from US20240287093A1, “HIGH ACTIVITY STING PROTEIN AGONIST” (ADLAI NORTYE BIOPHARMA CO., LTD., priority 2018, published 2024).

What was measured:
Assay type in all cases: cell-based
STING variants (WT) = target: T1, STING variants (WT) (Homo sapiens, UniProt Q86WV6); assay: SEAP reporter assay in HEK-Blue ISG KO-STING cells transfected with STING WT variant (Method 2, 1 ng vector); details: compound concentration 2.5 (mM as printed); 24 h; SEAP signal ratio to 0.5% DMSO
T1 construct: host or cells: HEK-Blue ISG KO-STING cells (Invivogen, hkb-kostg)
Source text: (§1) Example II: STING Variants (WT & HAQ) Activation by Compounds in HEK-Blue™ ISG KO-STING Cells (Method 2)
(§2) Activation of STING can be determined using a SEAP reporter assay in HEK-Blue™ ISG KO-STING cells (Invivogen, cat #hkb-kostg) transfected with plasmids expressing STING variants (WT & HAQ) (referred to WO2017/175147A1). STING variants (WT & HAQ) vector were constructed based on STING-232H vector (Origene, RC208418). GFP vector (VT2069) was bought from Youbio. The detailed protocol as follows: HEK-Blue™ ISG KO-STING cells were harvest and seeding into 96 well plate and the final cell number was 0.8×10^5 cells/well. Transfections were prepared using Lipofectamine 2000 (Invitrogen, Cat #11668-027) following the manufacturer's instructions (Lipo2000:DNA=1:10), 20 ul of transfection suspension containing 1 ng (WT variant) or 0.0625 ng (HAQ variant) STING vector was added to cell culture plate and incubated at 37° C., 5% CO2 for 24 h. After 24 hours incubation, compounds were added at proper concentration, the final DMSO concentration was 0.5%. After 24h incubation, the supernatant was collected to detect SEAP signal using Great EscAPe SEAP chemiluminescence KIT (Clontech, cat #631738) and cells were collected to detect cell viability using CellTiter-Glo Luminescent Cell Viability Assay(Promega, cat #G7573) following the manufacturer's instructions. The data were described by the ratio of the stimulating signal of compounds to 0.5% DMSO.

STING variants (HAQ) = target: T2, STING variants (HAQ) (Homo sapiens, UniProt Q86WV6, G230A/R293Q/R71H); assay: SEAP reporter assay in HEK-Blue ISG KO-STING cells transfected with STING HAQ variant (Method 2, 0.0625 ng vector); details: compound concentration 5 (mM as printed); 24 h; SEAP signal ratio to 0.5% DMSO
T2 construct: host or cells: HEK-Blue ISG KO-STING cells (Invivogen, hkb-kostg)
Source text: as §1, §2

STING = target: T3, STING (Homo sapiens, UniProt Q86WV6, G230A/H232R/R293Q/R71H); assay: IFNβ release from THP1 by STING activation (hIFNβ ELISA); details: THP1 cells, 24 h, IFN-β in supernatant; inactive = IFNβ not detected at the maximum concentration of compounds
T3 construct: THP1 was purchased from National Collection of Authenticated Cell Cultures (Cat #TCHu 57); host or cells: THP1
In short: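 THP1 cells from log-phase culture, suspended at 2×10^6 cells/ml, were treated with an 8-point, 3-fold compound series (0.2% DMSO final) for 24 h at 37°C, 5% CO2. Secreted IFN-β in supernatant was quantified by human IFNβ ELISA, and EC50 was obtained by curve fitting.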

T2 sequence (Q86WV6 whole entry R71H/G230A/R293Q): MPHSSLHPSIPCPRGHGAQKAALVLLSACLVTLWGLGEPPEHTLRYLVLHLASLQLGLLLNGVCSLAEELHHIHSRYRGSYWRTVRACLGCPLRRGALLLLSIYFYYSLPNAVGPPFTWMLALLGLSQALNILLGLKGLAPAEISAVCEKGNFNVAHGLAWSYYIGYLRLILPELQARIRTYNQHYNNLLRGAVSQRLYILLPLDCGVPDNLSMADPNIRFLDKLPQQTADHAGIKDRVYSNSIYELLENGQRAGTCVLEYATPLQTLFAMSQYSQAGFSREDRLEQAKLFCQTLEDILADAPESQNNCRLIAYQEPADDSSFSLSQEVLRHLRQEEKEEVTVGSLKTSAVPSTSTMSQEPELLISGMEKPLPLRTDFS
T3 sequence (Q86WV6 whole entry R71H/G230A/H232R/R293Q): as the sequence (Q86WV6 whole entry R71H/G230A/R293Q) above, with H232R counted along it

Fold change related to DMSO control, WT (STING variants (WT)) [fold] | Fold change related to DMSO control, HAQ (STING variants (HAQ)) [fold] | hIFNβ ELISA (EC50, μM) (STING) | EC50 (STING) [µM] | SMILES
1.18 | 1.59 | inactive | – | CCn1nc(C)c(Cl)c1C(=O)Nc1nc2cc(C(N)=O)cc3c2n1CC(C)(C)CO3 [Example 45, 1-(4-Chloro-1-ethyl-3-methyl-1H-pyrazole-5-carboxamido)-8,8-dimethyl-8,9-dihydro-7H-6-oxa-2,9a-diazabenzo[cd]azulene-4-carboxamide]
9.81 | 67.23 | – | 4.7 | CCn1nc(C)cc1C(=O)Nc1nc2cc(C(N)=O)cc3c2n1CC(C)(C)CN3C [Example 68, 1-(1-Ethyl-3-methyl-1H-pyrazole-5-carboxamido)-6,8,8-trimethyl-6,7,8,9-tetrahydro-2,6,9a-triazabenzo[cd]azulene-4-carboxamide]
2.48 | 15.38 | – | 19.8 | CCn1nc(C)c(F)c1C(=O)Nc1nc2cc(C(N)=O)cc3c2n1CC(C)(C)CO3 [Example 44, 1-(1-Ethyl-4-fluoro-3-methyl-1H-pyrazole-5-carboxamido)-8,8-dimethyl-8,9-dihydro-7H-6-oxa-2,9a-diazabenzo[cd]azulene-4-carboxamide]
1.84 | 13.40 | – | > 27.2 | CCn1nc(C)cc1C(=O)Nc1nc2cc(C(N)=O)cc3c2n1[C@@H](C)CCO3 [Example 62, (S)-1-(1-ethyl-3-methyl-1H-pyrazole-5-carboxamido)-9-methyl-8,9-dihydro-7H-6-oxa-2,9a-diazabenzo[cd]azulene-4-carboxamide]
6.91 | 27.64 | – | > 5.2 | CC[C@H]1COc2cc(C(N)=O)cc3nc(NC(=O)c4c(F)c(C)nn4CC)n1c23 [Example 47, (S)-3-Ethyl-2-(1-ethyl-4-fluoro-3-methyl-1H-pyrazole-5-carboxamido)-3,4-dihydro-5-oxa-1,2a-diazaacenaphthylene-7-carboxamide]
1.16 | 1.17 | inactive | – | CCn1nc(C)c(Br)c1C(=O)Nc1nc2cc(C(N)=O)cc3c2n1[C@@H](C(C)C)CO3 [Example 56, (S)-2-(4-Bromo-1-ethyl-3-methyl-1H-pyrazole-5-carboxamido)-3-isopropyl-3,4-dihydro-5-oxa-1,2a-diazaacenaphthylene-7-carboxamide]
7.69 | 74.83 | – | 7.6 | CCN1CC(C)(C)Cn2c(NC(=O)c3cc(C)nn3CC)nc3cc(C(N)=O)cc1c32 [Example 69, 6-Ethyl-1-(1-ethyl-3-methyl-1H-pyrazole-5-carboxamido)-8,8-dimethyl-6,7,8,9-tetrahydro-2,6,9a-triazabenzo[cd]azulene-4-carboxamide]
